# In PMC8920379, “The discovery of berberine erythrocyte-hemoglobin self-assembly delivery system: a neglected carrier underlying its pharmacokinetics” (Drug Delivery, 2022):
# “And” between values parts separate entries of the source, which are not always exact repeats. Equal values may be shown once. Read-outs that look alike come from different tables or passages of the source.
# Experiments:
# [1] = Bioavailability study of BBR via intravenous and oral administration (free drug in plasma, HPLC); type: in vivo, SD rats; conditions: rat plasma; for AUC(0-t): n = 8, mean ± SEM
# Experimental: Sixteen SD rats were randomly divided into two groups (n = 8) and received a single intragastrical administration (i.g.) of BBR at the dose of 400 mg/kg and intravenous injection (i.v.) at 2.5 mg/kg dose, respectively. Blood samples (0.5 mL) were obtained from the retroorbital sinus at 0.083, 0.167, 0.25, 0.5, 1, 2, 4, 8 and 24 h after administration for i.v. group and at 0.083, 0.167, 0.25, 0.5, 1, 2, 4, 8 and 24 h for i.g. groups. The plasma samples were processed with a protein precipitation method using acetonitrile and the concentration of free drug was analyzed by HPLC (Li et al., [2016]).
# 30% erythrocytes = assay: Berberine loading of erythrocytes (loading efficiency); type: in vitro ADME, rats; conditions: 37 °C, 2 h, n = 3
# Experimental: (§1) The whole blood was collected from rats by orbital plexus vein and transferred into a blood-collection tube containing ethylene diamine tetraacetic acid (EDTA) as an anticoagulant. The whole blood was centrifuged at 3000 rpm for 10 min. The plasma and the buffy coat in the supernatant were removed by aspiration, and erythrocytes were washed three times in cold phosphate buffer saline (PBS) and centrifuged for 10 min at 3000 rpm, and then resuspended in an appropriate volume of PBS.
# In order to determine the effect of BBR concentration on loading efficiency, different concentrations (1.000, 0.100, 0.010 and 0.001 M) of BBR were comparatively used at 37 °C for fixed incubation time (2 h) to obtain the more suitable concentration for the loading process. The hematocrite of washed erythrocytes was adjusted by PBS to 30%. In the 5-mL Eppendorf tubes, 1 mL of 30% erythrocytes was added to 1 mL PBS containing the known concentration of the agent. The final concentrations of BBR in the reaction system were […] (185, 18.5, 1.85 and 0.185 μg/mL), respectively. The mixtures were gently mixed to avoid hemolysis and incubated for 2 h at 37 °C. After incubation, the erythrocytes suspension was centrifuged for 10 min at 3000 rpm and the supernatant was collected.
# In order to verify the binding system, the supernatant was analyzed by quantifying the amount of unbound BBR through HPLC. In order to offset this effect, an internal standard method was employed in this study and piperine was chosen as the internal standard substance (200 μg/mL). Different known concentrations (500.00, 100.00, 20.00, 4.00, 0.80, 0.16 μg/mL) of BBR and piperine were used to create the standard curve. The peak area of each concentration with the concentration of piperine was measured 3 times. And then, the calibration curves were prepared using linear regression of known drug concentration versus peak area. The unknown concentration of BBR was analyzed by the regressed equation: y = a(x) + b. While y is the peak area ratio of BBR and piperine, a is the slope, b is the y-intercept, and x is the concentration of BBR.
# After incubation, acetonitrile was added to the different incubated solutions for protein precipitation. The mixtures were centrifuged at 8000 rpm for 10 min. The supernatants were collected and dried. The eluates were concentrated and re-dissolved for analysis. The loading efficiency was calculated according to the following formula: Loading efficiency (%) = [(Moriginal drug−Mdrug after incubation)/Moriginal drug] ×100%
# Hemolysis rate = type: cell-based, rats; conditions: rat, washed rat erythrocytes, 2% hematocrit suspension, 2% erythrocytes, 37 °C
# Experimental: as §1
# (§2) The hematocrite of washed erythrocytes was adjusted by PBS to 2%. In 5-mL Eppendorf tubes, 1 mL of 2% erythrocytes was incubated with 1 mL of different concentrations of BBR hydrochloride at 37 °C for 2 h. The final concentrations of BBR hydrochloride in reaction system were 0.125, 0.250, 0.500, 1.000, 1.333, 1.500, 1.600 mg/mL, respectively. One mL of 2% erythrocytes incubated with 1 mL saline solution served as the […] group while 1 mL 2% erythrocytes incubated with 1 mL distilled water served as the […] one. After incubation, the erythrocytes suspension was centrifuged at 3000 rpm for 10 min. Then 150 μL supernatant was added to the 96-well plate. Three parallel wells were set for each group, and the absorbance at 545 nm of each sample well was measured by a microplate reader. The imaging system was employed to observe whether BBR induced hemolysis. The hemolysis rate was calculated according to the following formula: Hemolysis rate (%) = [(ODsample−ODnegative)/(ODpositive −ODnegative)] ×100%
# 2% erythrocytes = assay: Hemolysis rate; type: cell-based, rats; conditions: 37 °C, 2 h
# Experimental: as §1, §2
# [2] = Erythrocytes/plasma partition coefficient of BBR in vivo; set-up: species or system SD rats; conditions: for Ce (drug concentration in erythrocytes) / Ce/p (erythrocytes/plasma partition coefficient) / Cp (drug concentration in plasma): individual rats no. 1-6
# Experimental: After six SD rats were intravenously administrated with BBR, blood samples were obtained from posterior orbital venous plexus to a heparinized tube at 5, 30, and 120 min, respectively, and then centrifuged at 2500 rpm for 10 min. After centrifugation, the upper layer (plasma) was collected, while the lower layer (blood cells) was washed three times with physiological saline and centrifuged for 5 min at 3000 rpm, and then resuspended in an appropriate volume of physiological saline, which was obtained as erythrocytes to perform the following procedure:
# Piperine was added into the obtained plasma as the internal standard substance and then the samples were mixed with acetonitrile to precipitate protein. The mixtures were centrifuged at 8000 rpm for 10 min. The supernatants were collected and dried. The eluates were concentrated and re-dissolved for analysis.
# The obtained erythrocytes were mixed with piperine and HC, and placed in a water bath at 60 °C for 6 h and then centrifuged at 12,000 rpm for 10 min. The supernatant was obtained and injected through a solid-phase extraction to separate drugs and impurities. The filtrate was collected, dried, and then re-dissolved with 200 μL acetonitrile for HPLC analysis (Chen et al., [2021]).
# [3] = SD, intravenous administration 2.5 mg/kg, n = 8
# [4] = SD, oral administration 400 mg/kg, n = 8
# [5] = BBR 0.185 μg/mL in BBR-erythrocyte system
# [6] = BBR 1.850 μg/mL in BBR-erythrocyte system
# [7] = BBR 18.500 μg/mL in BBR-erythrocyte system
structure (smiles),measurement,setting,value
"COc1ccc2cc3[n+](cc2c1OC)CCc1cc2c(cc1-3)OCO2 [BBR, Berberine]",AUC(0-inf),[1]; [3],7440 ± 548 ng·h/mL
same,MRT,[1]; [3],5.6 ± 0.561 h
same,AUC(0-t),"[1]; SD, intravenous administration 2.5 mg/kg",6420 ± 685 ng·h/mL
same,Cmax,"[1]; SD, intravenous administration 2.5 mg/kg, n = 8, read-out: Cmax/C0 (C0)",2830 ± 132 ng/mL
same,AUC(0-inf),[1]; [4],685 ± 93 ng·h/mL
same,MRT,[1]; [4],4.53 ± 0.515 h
same,Tmax,[1]; [4],1 h
same,AUC(0-t),"[1]; SD, oral administration 400 mg/kg",681 ± 93 ng·h/mL
same,CL/F,"[1]; SD, oral administration 400 mg/kg, n = 8, read-out: Clz/F (converted)",4230 mL/min/kg
same,Cmax,"[1]; SD, oral administration 400 mg/kg, n = 8, read-out: Cmax/C0 (Cmax)",260 ± 32 ng/mL
same,t1/2z,"[1]; intravenous administration 2.5 mg/kg, n = 8, 2.5 mg/kg",3.885 ± 0.389 h
same,t1/2z,"[1]; oral administration 400 mg/kg, n = 8, 400 mg/kg",3.136 ± 0.357 h
same,Extracellular BBR concentration after incubation,30% erythrocytes; [5],0 ± 0.051 µg/mL
same,Loading percentage,30% erythrocytes; [5],100% and 100 ± 19.84%
same,Extracellular BBR concentration after incubation,30% erythrocytes; [6],0.115 ± 0.072 µg/mL
same,Loading percentage,30% erythrocytes; [6],95.528 ± 2.622%
same,Extracellular BBR concentration after incubation,30% erythrocytes; [7],2.288 ± 0.105 µg/mL
same,Loading percentage,30% erythrocytes; [7],88.772 ± 0.410%
same,"hemolysis at 2 h, 1.5 mg/mL",Hemolysis rate; BBR 1.50 mg/mL,58.2%
same,"hemolysis at 2 h, 1.6 mg/mL",Hemolysis rate; BBR 1.60 mg/mL,89.7%
same,hemolysis of the BBR-erythrocyte system,2% erythrocytes; BBR 1.00 mg/mL,relatively stable without hemolysis
same,hemolysis of the erythrocyte,2% erythrocytes; BBR concentration below 1.00 mg/mL,no hemolysis
same,Ce (drug concentration in erythrocytes),[2]; 5 min after 2.5 mg/kg,1.313 µM and 0.039 µM and 0.000 µM and 0.375 µM and 0.862 µM and 0.584 µM
same,Ce/p (erythrocytes/plasma partition coefficient),[2]; 5 min after 2.5 mg/kg,∞ and 0.081 and 1.610 and 3.700 and 1.405
same,Cp (drug concentration in plasma),[2]; 5 min after 2.5 mg/kg,0.000 µM and 0.489 µM and 0.233 µM and 0.416 µM
same,Ce (drug concentration in erythrocytes),[2]; 30 min after 2.5 mg/kg,0.044 µM and 0.212 µM and 0.026 µM and 0.176 µM and 0.539 µM
same,Ce/p (erythrocytes/plasma partition coefficient),[2]; 30 min after 2.5 mg/kg,∞ and 0.090 and 0.897 and 0.875
same,Cp (drug concentration in plasma),[2]; 30 min after 2.5 mg/kg,0.000 µM and 0.282 µM and 0.197 µM and 0.616 µM
same,Ce (drug concentration in erythrocytes),[2]; 120 min after 2.5 mg/kg,0.225 µM and 0.000 µM and 0.132 µM
same,Ce/p (erythrocytes/plasma partition coefficient),[2]; 120 min after 2.5 mg/kg,∞
same,Cp (drug concentration in plasma),[2]; 120 min after 2.5 mg/kg,0.000 µM and 1.243 µM
same,Kp at 5 min,"[2]; SD, rat, erythrocytes/plasma, iv, 2.5 mg/kg, 5 min after intravenous administration, rats, read-out: Ce/p value (group value)",1.67 ± 1.5
same,Kp at 30 min,"[2]; SD, rat, erythrocytes/plasma, iv, 2.5 mg/kg, 30 min after intravenous administration, rats, read-out: Ce/p value (group value)",0.62 ± 0.6
